How the values were obtained:
Assay in all cases: Field trapping test, baited Trappit dome traps in apple and pear orchards
Type in all cases: in vivo
Conditions in all cases: for Numbers captured in traps: Experiment 4, 0.25% acetic acid in drowning solution and/or 1 ml alcohol in cap, unbaited control
Lacanobia subjuncta = tested on: Lacanobia subjuncta
Method: (§1) Materials and Methods. The Trappit™ dome trap (Agrisense, Fresno, Calif.) was used in all tests. Two hundred ml of a drowning solution was used in the reservoir of all traps. This solution was 200 ml water, 25 μl of detergent, 50 μl yellow, 25 μl blue, and 60 μl red food dyes (McCormick, Hunt Valley, N.J.), and 20 mg clay. Acetic acid, when tested, was added to the drowning solution as a percent of the solution. Alcohols tested were loaded in polyethylene caps (No. 60975D-3, Kimball Glass, Vineland, N.J.) that were impaled on a push pin glued to the inside of the top of the trap. Traps were serviced two or three times per week depending on weather conditions, and the drowning solution with or without acetic acid was replaced weekly. Alcohols in polyethylene caps were replaced monthly.
(§2) All experiments were conducted in commercial apple and pear orchards. Traps were hung from tree branches at 1.5 to 2 m above ground, with 10 m between traps within a block and 10 m between adjacent blocks.
(§3) Experiment Overview. Four trapping experiments were conducted in apple and pear orchards in the Yakima Valley during the summer of 1998. An initial experiment compared captures of pest moths in traps baited with the combination of acetic acid and 3-methyl-1-butanol to acetic acid alone and to fermented molasses solution. The second experiment was a comparison of the attractiveness of the combination of acetic acid and 3-methyl-1-butanol with varying percentages of acetic acid in the drowning solution. The third experiment was a comparison of the attractiveness of the combination of acetic acid and 3-methyl-1-butanol with varying doses of the 3-methyl-1-butanol in the cap. The fourth experiment was a test of possible synergism or enhancement of acetic acid with 3-methyl-1-butanol and acetic acid with 3-methyl-1-pentanol and a comparison of the two alcohols.
(§4) Trap catch data for each species was subjected to an ANOVA and means were separated by Duncan's New Multiple Range Test for the first and fourth experiments. Linear regression was used to analyze trap data from the second and third experiments to determine if their was a significant relationship between concentration (acetic acid) or dose (3-methyl-1-butanol) and captures of moths in traps.
(§5) Experiment 1. Traps were baited (1) with 0.25% acetic acid in the drowning solution, (2) with 0.5% acetic acid in the drowning solution and one ml of 3-methyl-1-butanol in a polyethylene cap, or (3) with 200 ml of a 10% solution of molasses in water. A randomized complete block design was used, with 4 blocks set up in early May. Traps were maintained through May and June and again in August.
(§6) Experiment 2. Traps were all baited with one ml of 3-methyl-1-butanol in a polyethylene cap and with either no acetic acid in the drowning solution or with 0.008, 0.03, 0.125, 0.5, or 2% glacial acetic acid by volume in the 200 ml of drowning solution. A randomized complete block design was used, with 4 blocks set up in late July, with each of the 6 treatments represented within each block. This experiment was maintained through August and early September.
(§7) Experiment 3. Traps were all baited with 0.25% acetic acid in the drowning solution and either 0, 12.5, 25, 50, or 100% 3-methyl-1-butanol in one ml of a mixture of 3-methyl-1-butanol and mineral oil. A randomized complete block design was used with each of the 5 treatments represented within each block. This experiment was set up in late July and was maintained through early September.
(§8) Experiment 4. Traps were either unbaited (control) or were baited with 0.25% acetic acid in the drowning solution (acetic acid), with 0.25% acetic acid in the drowning solution and one ml of 3-methyl-1-butanol in a polyethylene cap, with 0.25% acetic acid in the drowning solution and one ml of 3-methyl-1-pentanol in a polyethylene cap, with one ml of 3-methyl-1-butanol in a cap, or with one ml of 3-methyl-1-pentanol in a cap.

[1] = tested on: bertha armyworm (Mamestra configurata)
Method: as §1, §2, §3, §4, §5, §6, §7, §8

[2] = tested on: spotted cutworm (Xestia c-nigrum)
Method: as §1, §2, §3, §4, §5
Experiment 4. […]

[3] = Experiment 2, 1 ml 3-methyl-1-butanol in cap, no acetic acid
[4] = Experiment 1, 0.25% acetic acid in drowning solution, 200 ml 10% molasses solution

Structure (SMILES)	Numbers of moths captured in traps (Lacanobia subjuncta; [3])	Numbers captured in traps (Lacanobia subjuncta)	Numbers of moths captured in traps [1, 3]	Numbers captured in traps [1]	Numbers captured in traps [2]	Catches of male or female moths, acetic acid versus molasses (Lacanobia subjuncta; [4])	Catches of male or female moths, acetic acid versus molasses [1, 4]	Catches of female moths, acetic acid versus molasses ([2]; Experiment 1, females, 0.25% acetic acid, 10% molasses solution)
CC(C)CCO [3-methyl-1-butanol]	nearly no moths	significantly higher than the unbaited traps	Nearly no	significantly higher than the unbaited traps	significantly higher than the unbaited traps			
CCC(C)CCO (centres unmarked) [3-methyl-1-pentanol]		significantly higher than the unbaited traps		significantly higher than the unbaited traps	significantly higher than the unbaited traps			
CC(=O)O [acetic acid, reference compound]		significantly higher than the unbaited traps		significantly higher than the unbaited traps	significantly higher than the unbaited traps	no difference	no difference	no difference
